pKd: −log10 of the molar value.
Assays:
human PPARγ receptor = biological target: T1, human PPARγ receptor (Homo sapiens, UniProt P37231); assay: Binding test by competition with tritiated reference agonist (hydroxyapatite gel); details: hPPARγ/RXRα heterodimers from SF9 insect cells
T1 construct: made in house; host or cells: SF9 insect cells, recombinant baculovirus
Procedure: The affinity of the compounds of the invention for the human PPARγ receptor was determined in a test of binding, by competition for the attachment of a reference agonist, the following tritiated compound 5-{4-[2-(methylpyridin-2-ylamino)ethoxy]benzyl}thiazolidine-2,4-dione.
The receptors are obtained by infecting SF9 insect cells with a recombinant bacculovirus. They exist in the form of hPPARγ/RXRα heterodimers. The presence of RXRα increases the solubility and the stability of the hPPARγ receptor and, consequently, its biological activity, without as a result interfering in the determination of the binding constants.
The technique of adsorption on hydroxyapatite gel was used to separate the ligand bound to the receptor from the free ligand. The results are expressed as Kd value (nM) which represents the dissociation constant at equilibrium obtained for each compound.

[1] = biological target: T2, chimeric Gal-PPARγ receptor (LBD) (Homo sapiens, UniProt P37231); assay: Transactivation test, PPARγ agonist activity (luciferase); format: cell-based; details: concentration giving 50% activation relative to the reference agonist
T2 construct: chimeric Gal-PPARγ receptor (LBD); expressed in transfected cells; host or cells: HeLa cells, stably transfected
T2 sequence (P37231 238-503 limits assumed): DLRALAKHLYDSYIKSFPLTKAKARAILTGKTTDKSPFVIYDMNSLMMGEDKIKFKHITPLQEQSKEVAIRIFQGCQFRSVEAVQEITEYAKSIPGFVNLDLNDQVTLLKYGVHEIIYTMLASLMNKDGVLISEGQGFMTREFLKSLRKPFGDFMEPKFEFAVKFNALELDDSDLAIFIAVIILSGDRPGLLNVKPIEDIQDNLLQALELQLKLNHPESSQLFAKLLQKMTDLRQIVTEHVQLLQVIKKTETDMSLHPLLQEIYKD
Procedure: The agonist activity towards the PPARγ receptors of the compounds according to the invention may be evaluated by transactivation tests.
The capacity of the molecules to activate and/or inhibit the PPARγ receptors is evaluated from Hela cells stably transfected with the chimeric Gal-PPARγ receptor (LBD).
96-well plates are inoculated at the rate of 10000 cells/100 μl/well in DMEM 10% SDL medium and then placed for 24 hours at 37° C., 7% CO2.
To determine the PPARγ agonist activity, the cells are then treated by addition of 5 μl/well of the molecules to be tested at the final concentration of 1 μM. Cells are also treated in parallel with a reference agonist, (−)-3-{4-[2-(benzooxazol-2-ylmethylamino)ethoxy]phenyl}-2-ethoxypropionic acid, 1 μM.
After another incubation of 24 hours at 37° C., 7% CO2, a luciferase assay is carried out with the aid of the “Steady-Glo Luciferase Assay System” kit from Promega. The luminescence is counted on a Microbeta Trilux microplate reader (Wallac).
The agonist activity of the test product will be expressed as a percentage activation relative to the control agonist, the reference agonist at 1 μM.
The AC50, expressed in nM, is determined as the concentration which makes it possible to obtain 50% activation of the basal signal relative to the reference agonist.

T1 sequence (P19793 whole entry): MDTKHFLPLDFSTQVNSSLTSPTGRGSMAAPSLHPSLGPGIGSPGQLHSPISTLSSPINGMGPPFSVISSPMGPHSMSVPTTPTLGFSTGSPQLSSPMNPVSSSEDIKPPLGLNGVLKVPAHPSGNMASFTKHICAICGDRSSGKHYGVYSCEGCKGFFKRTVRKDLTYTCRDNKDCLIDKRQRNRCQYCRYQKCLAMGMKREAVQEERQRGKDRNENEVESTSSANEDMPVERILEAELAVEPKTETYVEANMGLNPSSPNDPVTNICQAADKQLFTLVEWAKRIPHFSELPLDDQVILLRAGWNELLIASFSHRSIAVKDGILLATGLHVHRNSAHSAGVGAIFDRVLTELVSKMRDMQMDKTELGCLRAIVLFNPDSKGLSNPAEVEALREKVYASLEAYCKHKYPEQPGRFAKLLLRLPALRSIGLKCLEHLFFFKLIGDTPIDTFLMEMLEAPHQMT
T1 sequence (P37231 whole entry): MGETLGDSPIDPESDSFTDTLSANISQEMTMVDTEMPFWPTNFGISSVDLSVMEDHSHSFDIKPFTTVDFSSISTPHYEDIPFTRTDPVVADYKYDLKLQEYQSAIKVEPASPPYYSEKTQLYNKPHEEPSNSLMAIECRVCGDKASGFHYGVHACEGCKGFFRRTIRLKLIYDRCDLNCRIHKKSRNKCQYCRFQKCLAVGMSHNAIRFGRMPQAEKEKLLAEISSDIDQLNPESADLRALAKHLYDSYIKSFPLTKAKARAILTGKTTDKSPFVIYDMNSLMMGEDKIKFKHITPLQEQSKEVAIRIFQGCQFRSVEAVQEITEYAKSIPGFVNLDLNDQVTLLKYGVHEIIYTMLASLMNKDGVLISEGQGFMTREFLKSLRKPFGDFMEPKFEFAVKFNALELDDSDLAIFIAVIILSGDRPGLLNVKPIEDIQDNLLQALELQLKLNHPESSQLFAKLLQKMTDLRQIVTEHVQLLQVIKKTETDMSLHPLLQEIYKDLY

| pKd (human PPARγ receptor) | AC50 [1] [nM] | SMILES |
| --- | --- | --- |
| 8.10 | 2.9 | CCO[C@@H](Cc1ccc(-c2cccc(CN(C)C(=O)c3ccc(-c4ccccc4)cc3)c2)cc1)C(=O)O [Example 19, (S)-3-(3′-{[(1-biphenyl-4-ylmethanoyl)methylamino]methyl}biphenyl-4-yl)-2-ethoxypropionic acid] |
| 6.30 | 23.3 | CN(Cc1cccc(-c2ccc(CC3SC(=O)NC3=O)cc2)c1)C(=O)c1cccc2ccccc12 (centres unmarked) [Example 5, N-[4′-(2,4-dioxothiazolidin-5-ylmethyl)biphenyl-3-ylmethyl]-N-methylnaphthalene-1-carboxamide] |
| 6.43 | 15.1 | CN(Cc1cccc(-c2ccc(CC3SC(=O)NC3=O)cc2)c1)C(=O)c1cc2ccccc2s1 (centres unmarked) [Example 11, N-[4′-(2,4-dioxothiazolidin-5-ylmethyl)biphenyl-3-ylmethyl]-N-methylbenzo[b]thio-phene-2-carboxamide] |
| 7.22 | 3.3 | CN(Cc1cccc(-c2ccc(CC3SC(=O)NC3=O)cc2)c1)C(=O)c1ccc(-c2ccccc2)cc1 (centres unmarked) [Example 10, N-[4′-(2,4-dioxothiazolidin-5-ylmethyl)biphenyl-3-ylmethyl]-N-methylbiphenyl-4-carboxamide] |
| 7.22 | 3.2 | CN(Cc1cccc(-c2ccc(CC3SC(=O)NC3=O)cc2)c1)C(=O)CCCCC(=O)c1ccccc1 (centres unmarked) [Example 12, N-[4′-(2,4-dioxothiazolidin-5-ylmethyl)biphenyl-3-ylmethyl]-N-methyl-6-oxo-6-phenylhexanamide] |
|  | 307 | CN(Cc1cccc(-c2ccc(CC3SC(=O)NC3=O)cc2)c1)C(=O)c1cccn1C (centres unmarked) [Example 8, N-[4′-(2,4-dioxothiazolidin-5-ylmethyl)biphenyl-3-ylmethyl]-N-methyl-1-methyl-1H-pyrrole-2-carboxamide] |
|  | 4.2 | CN(C)c1ccc(NC(=O)N(C)c2cccc(-c3ccc(CC4SC(=O)NC4=O)cc3)c2)cc1 (centres unmarked) [Example 22, 3-(4-dimethylaminophenyl)-1-[4′-(2,4-dioxothiazolidin-5-ylmethyl)biphenyl-3-yl]-1-methylurea] |
| 7.22 | 5 | CN(Cc1cccc(-c2ccc(CC3SC(=O)NC3=O)cc2)c1)C(=O)c1ccc(C(=O)c2ccccc2)cc1 (centres unmarked) [Example 15, N-[4′-(2,4-dioxothiazolidin-5-ylmethyl)biphenyl-3-ylmethyl]-N-methyl-4-(1-phenylmethanoyl)benzamide] |
|  | 42.5 | CSc1ccc(C(=O)N(C)Cc2cccc(-c3ccc(CC4SC(=O)NC4=O)cc3)c2)cc1 (centres unmarked) [Example 18, N-[4′-(2,4-dioxothiazolidine-5-ylmethyl)biphenyl-3-ylmethyl]-N-methyl-4-methylsulphanylbenzamide] |
| 7.82 | 3.8 | CN(Cc1cccc(-c2ccc(CC3SC(=O)NC3=O)cc2)c1)C(=O)c1ccc2cc(O)ccc2c1 (centres unmarked) [Example 17, 6-hydroxy-N-[4′-(2,4-dioxothiazolidin-5-ylmethyl)biphenyl-3-ylmethyl]-N-methylnaphthalene-2-carboxamide] |
| 8.40 | 0.55 | COCCOCOc1ccc2cc(C(=O)N(C)Cc3cccc(-c4ccc(CC5SC(=O)NC5=O)cc4)c3)ccc2c1 (centres unmarked) [Example 16, 6-(2-methoxyethoxymethoxy)-N-[4′-(2,4-dioxothiazolidin-5-ylmethyl)biphenyl-3-ylmethyl]-N-methylnapthalene-2-carboxamide] |
| 8.02 | 7.7 | CCO[C@@H](Cc1ccc(-c2cccc(CN(C)C(=O)CCCCC(=O)c3ccccc3)c2)cc1)C(=O)O [Example 20, (S)-2-ethoxy-3-(3′-{[methyl(6-oxo-6-phenylhexanoyl)amino]methyl}biphenyl-4-yl)propionic acid] |
| 6.43 | 13.1 | COC(=O)c1ccc(C(=O)N(C)Cc2cccc(-c3ccc(CC4SC(=O)NC4=O)cc3)c2)cc1 (centres unmarked) [Example 3, methyl N-[4′-(2,4-dioxothiazolidin-5-ylmethyl)biphenyl-3-ylmethyl]-N-methylterephthalamate] |
|  | 1 | CCO[C@@H](Cc1ccc(-c2cccc(CN(C)C(=O)c3ccc4cc(OCOCCOC)ccc4c3)c2)cc1)C(=O)O [Example 23, (S)-2-ethoxy-3-{3′-[({1-[6-(2-methoxyethoxymethoxy)naphthalen-2-yl]methanoyl}methylamino)methyl]biphenyl-4-yl}propionic acid] |
|  | 22 | CN(C(=O)Nc1ccc2ccccc2c1)c1cccc(-c2ccc(CC3SC(=O)NC3=O)cc2)c1 (centres unmarked) [Example 21, 1-[4′-(2,4-dioxothiazolidin-5-ylmethyl)biphenyl-3-yl]-1-methyl-3-naphthalen-2-ylurea] |
|  | 143 | CN(Cc1cccc(-c2ccc(CC3SC(=O)NC3=O)cc2)c1)C(=O)c1ccc(S(C)(=O)=O)cc1 (centres unmarked) [Example 14, N-[4′-(2,4-dioxothiazolidin-5-ylmethyl)biphenyl-3-ylmethyl]-4-methanesulphonyl-N-methylbenzamide] |
| 7.22 | 4 | CN(Cc1cccc(-c2ccc(CC3SC(=O)NC3=O)cc2)c1)C(=O)c1ccc2ccccc2c1 (centres unmarked) [Example 6, N-[4′-(2,4-dioxothiazolidin-5-ylmethyl)biphenyl-3-ylmethyl]-N-methylnaphthalene-2-carboxamide] |
| 6.30 | 36.7 | CN(Cc1cccc(-c2ccc(CC3SC(=O)NC3=O)cc2)c1)C(=O)c1ccc(N(C)C)c2ccccc12 (centres unmarked) [Example 13, 4dimethylamino-N-[4′-(2,4-dioxothiazolidin-5-ylmethyl)biphenyl-3-ylmethyl]-N-methylnaphthalene-1-carboxamide] |
|  | 63.8 | CN(Cc1cccc(-c2ccc(CC3SC(=O)NC3=O)cc2)c1)C(=O)COc1ccccc1 (centres unmarked) [Example 7, N-[4′-(2,4-dioxothiazolidin-5-ylmethyl)biphenyl-3-ylmethyl]-N-methyl-2-phenoxyacetamide] |
| 6.60 | 24.2 | CN(Cc1cccc(-c2ccc(CC3SC(=O)NC3=O)cc2)c1)C(=O)CCC1CCCC1 (centres unmarked) [Example 4, 3-cyclopentyl-N-[4′-(2,4-dioxothiazolidin-5-ylmethyl)biphenyl-3-ylmethyl]-N-methylpropionamide] |
|  | 55.5 | COC(=O)CCCCCCCCC(=O)N(C)Cc1cccc(-c2ccc(CC3SC(=O)NC3=O)cc2)c1 (centres unmarked) [Example 2, methyl 9-{[4′-(2,4-dioxothiazolidin-5-ylmethyl)biphenyl-3-ylmethyl]methylcarbamoyl}nonanoate] |
|  | 182 | CN(Cc1cccc(-c2ccc(CC3SC(=O)NC3=O)cc2)c1)C(=O)C12CC3CC(CC(C3)C1)C2 (centres unmarked) [Example 9, N-[4′-(2,4dioxothiazolidin-5-ylmethyl)biphenyl-3-ylmethyl]-N-methyladamantane-1-carboxamide] |
